Measurements taken from ChEMBL document CHEMBL5291721, “A preclinical secondary pharmacology resource illuminates target-adverse drug reaction associations of marketed drugs” (Nat Commun, 2023).
Where a SMILES comes first, the peptide text is derived from it.

What was measured:
[1] = target: T1, Alpha-2A adrenergic receptor (Homo sapiens, UniProt P08913); type: functional, cell-based
T1 sequence (P08913 whole entry): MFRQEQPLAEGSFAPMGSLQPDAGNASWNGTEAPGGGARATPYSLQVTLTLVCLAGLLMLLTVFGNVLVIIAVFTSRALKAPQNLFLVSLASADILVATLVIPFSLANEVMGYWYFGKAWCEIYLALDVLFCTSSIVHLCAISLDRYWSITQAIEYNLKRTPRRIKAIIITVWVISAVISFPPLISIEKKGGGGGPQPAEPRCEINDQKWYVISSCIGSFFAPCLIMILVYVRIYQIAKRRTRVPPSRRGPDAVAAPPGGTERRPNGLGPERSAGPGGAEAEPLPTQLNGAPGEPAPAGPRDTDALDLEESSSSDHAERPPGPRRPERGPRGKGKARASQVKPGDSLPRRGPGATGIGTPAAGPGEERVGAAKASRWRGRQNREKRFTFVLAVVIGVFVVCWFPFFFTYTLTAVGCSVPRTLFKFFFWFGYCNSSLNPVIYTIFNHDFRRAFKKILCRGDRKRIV

[2] = target: T2, Alpha-2B adrenergic receptor (Homo sapiens, UniProt P18089)
T2 sequence (P18089 whole entry): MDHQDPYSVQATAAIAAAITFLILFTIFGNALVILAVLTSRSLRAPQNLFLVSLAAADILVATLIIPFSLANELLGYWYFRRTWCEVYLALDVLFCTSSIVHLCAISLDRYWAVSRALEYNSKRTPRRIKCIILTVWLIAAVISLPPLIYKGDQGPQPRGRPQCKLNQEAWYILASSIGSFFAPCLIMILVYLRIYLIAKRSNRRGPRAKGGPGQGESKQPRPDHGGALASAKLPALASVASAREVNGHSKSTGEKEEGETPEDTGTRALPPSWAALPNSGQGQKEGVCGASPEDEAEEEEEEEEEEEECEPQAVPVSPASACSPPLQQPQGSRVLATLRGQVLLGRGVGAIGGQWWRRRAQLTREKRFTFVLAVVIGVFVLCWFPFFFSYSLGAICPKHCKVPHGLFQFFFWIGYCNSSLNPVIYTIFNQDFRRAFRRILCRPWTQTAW

[3] = target: T3, Cholecystokinin receptor type A (Homo sapiens, UniProt P32238)
T3 sequence (P32238 whole entry): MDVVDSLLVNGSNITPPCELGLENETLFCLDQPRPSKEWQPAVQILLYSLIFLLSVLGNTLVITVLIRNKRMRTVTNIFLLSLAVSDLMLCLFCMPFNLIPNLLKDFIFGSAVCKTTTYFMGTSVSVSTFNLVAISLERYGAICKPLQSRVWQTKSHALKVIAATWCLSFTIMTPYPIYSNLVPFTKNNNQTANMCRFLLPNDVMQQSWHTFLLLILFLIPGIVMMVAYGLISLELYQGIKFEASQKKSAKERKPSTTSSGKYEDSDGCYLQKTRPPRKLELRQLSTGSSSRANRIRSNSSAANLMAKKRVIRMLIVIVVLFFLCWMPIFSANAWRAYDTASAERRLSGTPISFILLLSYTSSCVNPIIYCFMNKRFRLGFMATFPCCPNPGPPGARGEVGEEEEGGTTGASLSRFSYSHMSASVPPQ

[4] = target: T4, Muscarinic acetylcholine receptor M2 (Homo sapiens, UniProt P08172); type: functional, cell-based
T4 sequence (P08172 whole entry): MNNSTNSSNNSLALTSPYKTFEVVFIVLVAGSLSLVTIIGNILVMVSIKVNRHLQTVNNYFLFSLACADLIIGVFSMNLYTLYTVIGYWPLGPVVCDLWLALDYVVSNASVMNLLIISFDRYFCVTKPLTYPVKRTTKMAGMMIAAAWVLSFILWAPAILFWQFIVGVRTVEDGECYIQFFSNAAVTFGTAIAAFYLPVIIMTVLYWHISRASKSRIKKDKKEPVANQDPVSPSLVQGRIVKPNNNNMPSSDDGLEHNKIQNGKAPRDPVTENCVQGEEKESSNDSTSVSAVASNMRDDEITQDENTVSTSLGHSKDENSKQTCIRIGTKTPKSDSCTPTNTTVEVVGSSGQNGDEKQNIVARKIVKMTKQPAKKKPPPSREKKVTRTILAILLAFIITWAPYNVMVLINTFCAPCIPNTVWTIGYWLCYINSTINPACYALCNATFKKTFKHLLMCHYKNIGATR

[5] = target: Neuronal acetylcholine receptor subunit alpha-4 (Homo sapiens, UniProt P43681)
[6] = target: Gamma-aminobutyric acid receptor subunit alpha-1 (Rattus norvegicus, UniProt P62813); type: functional
[7] = target: Glutamate receptor ionotropic, NMDA 1 (Rattus norvegicus, UniProt P35439)
[8] = target: Sodium-dependent serotonin transporter (Homo sapiens, UniProt P31645)
Also: assay procedure not described here.

Sequence of Neuronal acetylcholine receptor subunit alpha-4 (P43681 whole entry): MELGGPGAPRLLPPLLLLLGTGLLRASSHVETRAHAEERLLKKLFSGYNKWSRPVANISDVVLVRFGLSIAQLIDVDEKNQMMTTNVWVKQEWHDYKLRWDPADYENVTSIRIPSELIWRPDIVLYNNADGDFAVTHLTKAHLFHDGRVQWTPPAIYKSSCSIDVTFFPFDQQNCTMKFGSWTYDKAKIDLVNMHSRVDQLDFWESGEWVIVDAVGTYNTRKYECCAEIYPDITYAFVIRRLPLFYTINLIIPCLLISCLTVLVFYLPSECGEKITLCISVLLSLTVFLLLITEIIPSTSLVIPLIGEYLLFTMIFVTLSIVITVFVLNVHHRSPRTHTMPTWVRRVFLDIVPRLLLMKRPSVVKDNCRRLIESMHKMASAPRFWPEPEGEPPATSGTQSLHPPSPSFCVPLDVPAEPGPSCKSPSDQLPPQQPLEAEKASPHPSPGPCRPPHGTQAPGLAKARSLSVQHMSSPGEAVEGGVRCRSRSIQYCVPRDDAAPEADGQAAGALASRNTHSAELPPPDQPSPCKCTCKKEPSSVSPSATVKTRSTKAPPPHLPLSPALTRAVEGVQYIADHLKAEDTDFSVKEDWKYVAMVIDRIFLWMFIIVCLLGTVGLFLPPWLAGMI
Sequence of Sodium-dependent serotonin transporter (P31645 whole entry): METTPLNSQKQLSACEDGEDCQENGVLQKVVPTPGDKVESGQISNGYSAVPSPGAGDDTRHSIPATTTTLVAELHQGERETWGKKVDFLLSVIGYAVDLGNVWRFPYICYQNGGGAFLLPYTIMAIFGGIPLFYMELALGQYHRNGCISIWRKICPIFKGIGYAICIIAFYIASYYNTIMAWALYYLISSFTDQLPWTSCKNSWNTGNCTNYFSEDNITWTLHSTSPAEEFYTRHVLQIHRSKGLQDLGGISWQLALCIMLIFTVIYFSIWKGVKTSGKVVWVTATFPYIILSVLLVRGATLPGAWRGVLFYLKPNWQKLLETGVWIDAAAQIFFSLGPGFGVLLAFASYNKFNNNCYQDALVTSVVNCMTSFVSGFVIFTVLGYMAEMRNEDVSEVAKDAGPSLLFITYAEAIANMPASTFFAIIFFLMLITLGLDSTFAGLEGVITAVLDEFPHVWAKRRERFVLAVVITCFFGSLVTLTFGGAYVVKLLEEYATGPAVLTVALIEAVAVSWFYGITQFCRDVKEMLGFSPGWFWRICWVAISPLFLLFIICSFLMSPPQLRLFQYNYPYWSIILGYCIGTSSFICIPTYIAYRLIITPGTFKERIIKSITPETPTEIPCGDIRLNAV
Sequence of Gamma-aminobutyric acid receptor subunit alpha-1 (P62813 whole entry): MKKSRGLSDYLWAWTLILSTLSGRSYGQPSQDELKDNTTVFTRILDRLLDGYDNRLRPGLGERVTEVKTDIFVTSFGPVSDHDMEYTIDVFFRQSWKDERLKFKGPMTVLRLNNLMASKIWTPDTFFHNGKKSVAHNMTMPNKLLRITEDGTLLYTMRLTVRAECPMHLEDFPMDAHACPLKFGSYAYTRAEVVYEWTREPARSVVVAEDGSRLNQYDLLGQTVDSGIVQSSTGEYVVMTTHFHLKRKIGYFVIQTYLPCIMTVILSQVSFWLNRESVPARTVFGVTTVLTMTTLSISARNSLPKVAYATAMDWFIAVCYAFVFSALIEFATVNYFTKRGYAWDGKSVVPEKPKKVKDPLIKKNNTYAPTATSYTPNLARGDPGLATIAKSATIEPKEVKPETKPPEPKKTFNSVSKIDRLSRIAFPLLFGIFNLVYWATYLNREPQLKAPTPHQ

## CN1CCCN=C1/C=C/c1cccc(O)c1 [OXANTEL]
[1]
  AC50: > 30 µM
[2]
  AC50: > 30 µM
[3]
  AC50: > 30 µM
[4]
  AC50: > 30 µM
[5]
  AC50: 7.2 µM
[6]
  AC50: > 30 µM
[7]
  AC50: > 30 µM
[8]
  AC50: > 30 µM

## COC(=O)c1ccc2c(c1)NC(=O)/C2=C(\Nc1ccc(N(C)C(=O)CN2CCN(C)CC2)cc1)c1ccccc1 [NINTEDANIB]
[1]
  AC50: > 30 µM
[2]
  AC50: 11 µM
[3]
  AC50: > 30 µM
[4]
  AC50: > 30 µM
[5]
  AC50: > 30 µM
[6]
  AC50: > 30 µM
[7]
  AC50: > 30 µM
[8]
  AC50: > 30 µM

## O=C(O)c1nn(Cc2ccc(Cl)cc2Cl)c2ccccc12 [LONIDAMINE]
[1]
  AC50: > 30 µM
[2]
  AC50: > 30 µM
[3]
  AC50: > 30 µM
[4]
  AC50: > 30 µM
[5]
  AC50: > 30 µM
[6]
  AC50: > 30 µM
[7]
  AC50: > 30 µM
[8]
  AC50: > 30 µM

## C[C@H](N)C(=O)N[C@@H](CCC(N)=O)C(=O)O [ALANYL GLUTAMINE] (H-Ala-Gln-OH)
[1]
  AC50: > 30 µM
[2]
  AC50: > 30 µM
[3]
  AC50: > 30 µM
[4]
  AC50: > 30 µM
[5]
  AC50: > 30 µM
[6]
  AC50: > 30 µM
[7]
  AC50: > 30 µM
[8]
  AC50: > 30 µM

## NS(=O)(=O)c1ccc(N2CCCCS2(=O)=O)cc1
[1]
  AC50: > 30 µM
[2]
  AC50: > 30 µM
[3]
  AC50: > 30 µM
[4]
  AC50: > 30 µM
[5]
  AC50: > 30 µM
[6]
  AC50: > 30 µM
[7]
  AC50: > 30 µM
[8]
  AC50: > 30 µM

## O=C(O[C@H]1C[N+]2(CCCOc3ccccc3)CCC1CC2)C(O)(c1cccs1)c1cccs1 [ACLIDINIUM BROMIDE]
[2]
  AC50: > 10 µM
[3]
  AC50: > 30 µM
[5]
  AC50: > 10 µM
[6]
  AC50: > 10 µM
[7]
  AC50: > 10 µM
[8]
  AC50: > 10 µM

## CCCCCCCC(=O)CC[C@@H]1[C@@H](C/C=C\CCCC(=O)O)[C@@H](O)C[C@H]1O [UNOPROSTONE]
[1]
  AC50: > 30 µM
[2]
  AC50: > 30 µM
[3]
  AC50: > 30 µM
[4]
  AC50: > 30 µM
[5]
  AC50: > 30 µM
[6]
  AC50: > 30 µM
[7]
  AC50: > 30 µM
[8]
  AC50: > 30 µM

## CCN1C(=O)NC(c2ccccc2)C1=O (stereo not given) [ETHOTOIN]
[1]
  AC50: > 30 µM
[2]
  AC50: > 30 µM
[3]
  AC50: > 30 µM
[4]
  AC50: > 30 µM
[5]
  AC50: > 30 µM
[6]
  AC50: > 30 µM
[7]
  AC50: > 30 µM
[8]
  AC50: > 30 µM

## Cc1ccc(S(=O)(=O)NC(=O)N[C@H]2[C@H]3CC[C@@](C)([C@H]2O)C3(C)C)cc1 [GLIBORNURIDE]
[1]
  AC50: > 30 µM
[2]
  AC50: > 30 µM
[3]
  AC50: > 30 µM
[4]
  AC50: > 30 µM
[5]
  AC50: > 30 µM
[6]
  AC50: > 30 µM
[7]
  AC50: > 30 µM
[8]
  AC50: > 30 µM

## SITOSTEROLS
[1]
  AC50: > 30 µM
[2]
  AC50: > 30 µM
[3]
  AC50: > 30 µM
[4]
  AC50: > 30 µM
[5]
  AC50: > 30 µM
[6]
  AC50: > 30 µM
[7]
  AC50: > 30 µM

## CC(NC(C)(C)C)C(=O)c1cccc(Cl)c1 (stereo not given) [BUPROPION]
[1]
  AC50: > 10 µM
[3]
  AC50: > 30 µM
[4]
  AC50: > 10 µM
[7]
  AC50: > 10 µM

## O=C(O)CCCC[C@@H]1SC[C@@H]2NC(=O)N[C@@H]21 [BIOTIN]
[1]
  AC50: > 10 µM
[2]
  AC50: > 10 µM
[3]
  AC50: > 10 µM
[4]
  AC50: > 10 µM
[5]
  AC50: > 10 µM

## CCCCOC(=O)c1ccc(N)cc1 [BUTAMBEN]
[1]
  AC50: > 30 µM
[3]
  AC50: > 30 µM
[4]
  AC50: > 30 µM
[5]
  AC50: > 30 µM
[6]
  AC50: > 30 µM
[7]
  AC50: > 30 µM

## CC(=O)OCC(=O)[C@@]1(O)CC[C@H]2[C@@H]3CCC4=CC(=O)CC[C@]4(C)[C@@]3(F)[C@@H](O)C[C@@]21C [FLUDROCORTISONE ACETATE]
[1]
  AC50: > 30 µM
[3]
  AC50: > 30 µM
[4]
  AC50: > 30 µM
[5]
  AC50: > 30 µM
[6]
  AC50: > 30 µM
[7]
  AC50: > 30 µM

## CNCCc1ccccn1 [BETAHISTINE]
[1]
  AC50: > 30 µM
[3]
  AC50: > 30 µM
[4]
  AC50: > 30 µM
[5]
  AC50: > 30 µM
[6]
  AC50: > 30 µM
[7]
  AC50: > 30 µM

## CCN(CC)CC(=O)Nc1c(C)cccc1C [LIDOCAINE]
[3]
  AC50: > 30 µM
